System: human diffuse large B-cell lymphoma cell line OCI-Ly10 cells
Assay: Proliferation inhibition, OCI-Ly10 cells (CellTiter-Glo)
Type: cell-based
Conditions: OCI-Ly10, 72 h, 3 days culture, 100% inhibition = value on day of cell seeding
Method: OCI-Ly10 is a cell line originated from human diffuse large B-cell lymphoma, which is a B-cell malignant neoplasm, and the BTK dependency has been confirmed (Nature. 2010; 463:88-92). The human diffuse large B-cell lymphoma cell line OCI-Ly 10 cells (University Health Network) cultured in an Iscove's Modified Dulbecco's Medium (Sigma) containing a 20% bovine serum were seeded into 96 well plates. On the same day, DMSO solutions of the test compound B at a final concentrations from 0.1 nM to 1 μM or only DMSO (DMSO group) were added thereto to culture the cells at 37° C. in 5% CO2 for 3 days. Thereafter, the cell number was measured using a cell counting reagent (CellTiter-Glo (registered trademark) Luminescent Cell Viability Assay (Promega)). The cell proliferation inhibition rate was calculated by the measured value in the DMSO group set as 0% inhibition and the measured value in the DMSO group on day of cell seeding set as 100% inhibition.

C=CC(=O)N1CC[C@@H](Oc2nc(Nc3ccc(N4CCC(N5CCN(C)CC5)CC4)cc3)c(C(N)=O)nc2CC)C1 [test compound B, 5-{[(3R)-1-acryloylpyrrolidin-3-yl]oxy}-6-ethyl-3-({4-[4-(4-methylpiperazin-1-yl)piperidin-1-yl]phenyl}amino)pyrazine-2-carboxamide monomethanesulfonate]
GI50: 1 nM
